In PubChem BioAssay AID1259375 (The Scripps Research Institute Molecular Screening Center, 2018):
pIC50: −log10 of the molar value. The source made the active and inactive calls. How the calls were made is not given here.

Biological target: Microphthalmia-associated transcription factor (Homo sapiens) (UniProt O75030)
Assay: MITF inhibitors by FRET titration, dose response, biochemical, high throughput (AID 1259375);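 further: FRET between CFP-tagged and YFP-tagged MITF protein partners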
Conditions: FRET biochemical assay, MITF inhibition

Sequence of Microphthalmia-associated transcription factor (Homo sapiens) (O75030 whole entry, looked up): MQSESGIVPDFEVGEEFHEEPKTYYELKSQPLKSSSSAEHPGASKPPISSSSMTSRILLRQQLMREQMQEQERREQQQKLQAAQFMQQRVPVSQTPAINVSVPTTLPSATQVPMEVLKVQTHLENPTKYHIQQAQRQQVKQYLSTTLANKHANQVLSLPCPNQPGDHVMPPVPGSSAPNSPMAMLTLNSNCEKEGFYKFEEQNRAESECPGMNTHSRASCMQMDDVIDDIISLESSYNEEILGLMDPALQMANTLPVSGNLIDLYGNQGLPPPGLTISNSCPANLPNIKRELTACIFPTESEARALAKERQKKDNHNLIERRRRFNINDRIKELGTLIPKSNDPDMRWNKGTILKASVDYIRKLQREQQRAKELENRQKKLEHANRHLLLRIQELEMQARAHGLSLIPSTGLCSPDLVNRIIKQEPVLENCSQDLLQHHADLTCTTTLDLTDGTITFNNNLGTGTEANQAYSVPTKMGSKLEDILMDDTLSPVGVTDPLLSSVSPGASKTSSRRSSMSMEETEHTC

Row | Compound | IC50 | pIC50
1 | O=C(/C=C/c1ccco1)Nc1c[nH]c(=O)[nH]c1=O | > 6.48 µM (inactive) | 
2 | COc1ccc(CCNC(=O)CN2CCN(Cc3nc(-c4ccco4)cs3)CC2)cc1OC | > 6.48 µM (inactive) | 
3 | CC(=O)NS(=O)(=O)c1ccc(NC(=O)c2ccc([N+](=O)[O-])o2)cc1 | > 6.61 µM (inactive) | 
4 | Cc1n[nH]c(=O)nc1NNc1ccc(C(=O)O)cc1 | > 6.48 µM (inactive) | 
5 | C[C@@H](OCc1ccccc1)[C@@H]1NC(=O)[C@H]2CN(C(=O)NCc3ccccc3)CCN2C1=O | > 6.48 µM (inactive) | 
6 | O=C(OCCCC(=O)N1CCOCC1)c1cc(-c2ccco2)nc2ccccc12 | > 6.58 µM (inactive) | 
7 | COc1cc(OC)c(C(=O)OC2CCCC2=O)cc1OC (stereo not drawn) | > 7.05 µM (inactive) | 
8 | Cc1ccc(COc2ccc(/C=N/N=C3\NC(=O)C(CC(=O)O)S3)cc2)cc1 (stereo not drawn) | > 6.48 µM (inactive) | 
9 | CCN(CCN(C)C)Cc1ccc(F)cc1 | > 6.48 µM (inactive) | 
10 | OCCNc1cc(-c2cccs2)ncn1 | > 6.01 µM (inactive) | 
11 | Cc1cc(N=Cc2ccc([N+](=O)[O-])o2)ccc1S(=O)(=O)O | > 6.48 µM (inactive) | 
12 | COC(=O)c1c(NC(=O)c2ccc([N+](=O)[O-])o2)sc(Cc2ccc3c(c2)OCO3)c1C | > 6.42 µM (inactive) | 
13 | Cc1cc2c(c(=O)[nH]1)C(=O)O/C2=C\c1ccc(C)o1 | > 6.86 µM (inactive) | 
14 | O=C(O)c1cc(-c2ccco2)nc2ccccc12 | > 7.59 µM (inactive) | 
15 | O=C1Nc2ccc(S(=O)(=O)NCc3ccccc3)cc2C1=O | > 6.08 µM (inactive) | 
16 | O=C(NCCc1ccc(O)cc1)c1cccc(-c2cccs2)c1 | > 6.26 µM (inactive) | 
17 | NC(=O)c1cncc(-c2cccs2)c1 | > 6.5 µM (inactive) | 
18 | COc1ccc(CN2CCN(Cc3ccccc3OC)CC2)cc1 | > 7.33 µM (inactive) | 
19 | COc1cc(N2CCOCC2)ccc1Nc1cc(NC(C)(C)c2ccccc2)c(C(F)(F)F)cn1 | > 6.48 µM (inactive) | 
20 | C[C@H]1NC(=O)[C@H]2CN(C(=O)NCc3ccccc3)CCN2C1=O | > 6.48 µM (inactive) | 
21 | CC(=C/C(=O)O)/C=C/c1ccoc1 | > 9.75 µM (inactive) | 
22 | O=S(=O)(O)c1cc(S(=O)(=O)O)c2cc(O)c(S(=O)(=O)O)cc2c1 | > 6.48 µM (inactive) | 
23 | O=C(NC1CCCCC1)N1CCN2C(=O)[C@@H]3CCCN3C(=O)[C@H]2C1 | > 6.48 µM (inactive) | 
24 | C[C@@H](OCc1ccccc1)[C@@H]1NC(=O)[C@H]2CN(C(=O)Nc3cccc(F)c3)CCN2C1=O | > 6.48 µM (inactive) | 
25 | CCCCCCCCCCCCCCCC(=O)OC[C@H](O)[C@H]1OC(=O)C(=O)C1O (stereo partly drawn) | > 6.48 µM (inactive) | 

Row | Compound | IC50 | pIC50
26 | CCOC(=O)N1CCN(C(=S)Nc2ccc(OCC)cc2)CC1 | > 6.48 µM (inactive) | 
27 | Cc1ccc(CCC(=O)Nc2ccc(-c3cn4c5c(nnc4n3)CCCC5)cc2)o1 | > 6.48 µM (inactive) | 
28 | O=C(Nc1ccc(N2CCOCC2)cc1)c1cccc(Nc2ccncn2)n1 | > 7.56 µM (inactive) | 
29 | c1ccc2c(c1)ncn2CC1CCN(Cc2cn3ccccc3n2)CC1 | > 6.48 µM (inactive) | 
30 | C[C@@H]1NC(=O)[C@H]2CN(C(=O)NC3CCCCC3)CCN2C1=O | > 6.48 µM (inactive) | 
31 | O=C(O)c1c2c(nc3ccc(S(=O)(=O)N4CCC(C(=O)O)CC4)cc13)CCC2 | > 6.48 µM (inactive) | 
32 | O=C(/C=C/c1ccc(-c2cccc(C(F)(F)F)c2)o1)c1ccco1 | > 6.63 µM (inactive) | 
33 | CN(C)CCn1nnnc1SCC1=C(C(=O)O)N2C(=O)[C@@H](NC(=O)Cc3csc(N)n3)[C@H]2SC1 | > 6.48 µM (inactive) | 
34 | COc1cccc(CN2CCN(C(=O)c3ccc(F)cc3)CC2)c1 | > 5.27 µM (inactive) | 
35 | O=C(Nc1ccc(Cl)cc1Cl)N1CCN2C(=O)[C@@H]3CSCN3C(=O)[C@H]2C1 | > 6.48 µM (inactive) | 
36 | C/C(=N\Nc1ccc(S(=O)(=O)O)cc1)c1ccc([N+](=O)[O-])o1 | > 6.48 µM (inactive) | 
37 | CN(C)CCOCCOc1ccccc1-c1ccccc1 | > 6.48 µM (inactive) | 
38 | O=C(Nc1ccc(Oc2ccccc2)cc1)c1ccnc(-c2cccs2)c1 | > 6.71 µM (inactive) | 
39 | CC(C)[C@@H]1NC(=O)[C@H]2CN(C(=O)NCc3ccccc3)CCN2C1=O | > 6.48 µM (inactive) | 
40 | O=C(O)/C=C/c1ccc([N+](=O)[O-])o1 | > 10.6 µM (inactive) | 
41 | COc1ccc2c(c1)CC(C(=O)Nc1ccc(-c3cn[nH]c3)cc1OCc1ccccc1)CO2 (stereo not drawn) | > 6.48 µM (inactive) | 
42 | O=C1O[C@H](C(O)CO)C(O)=C1O (stereo partly drawn) | > 6.48 µM (inactive) | 
43 | COc1ccccc1C1(NC(=O)CCCCC2SCC3NC(=O)NC32)CCCC1 (stereo not drawn) | > 6.48 µM (inactive) | 
44 | COc1ccc(OC)c(CN2CCN(Cc3ccc(F)cc3)CC2)c1 | > 6.11 µM (inactive) | 
45 | S=c1[nH]nc(-c2cccnc2)n1/N=C/C=C/c1ccco1 | > 6.48 µM (inactive) | 
46 | O=C(O)c1cc(-n2cccc2)ccc1Cl | > 6.48 µM (inactive) | 
47 | CN(c1cccc(NS(=O)(=O)c2ccc([N+](=O)[O-])cc2)c1)S(C)(=O)=O | > 6.48 µM (inactive) | 
48 | CCOC(=O)C1C2NC(=S)N(c3cccc(Cl)c3)C1(C)Oc1c(OC)cccc12 (stereo not drawn) | > 5.09 µM (inactive) | 
49 | COc1ccc(/C=C2\N=C(c3ccc4c(c3)OCO4)OC2=O)cc1Cl | > 5.41 µM (inactive) | 
50 | COCCCNC(=O)/C(C#N)=C/c1ccc(OCC(=O)O)c(OC)c1 | > 6.48 µM (inactive) | 

Row | Compound | IC50 | pIC50
51 | O=C(O)c1cc(N/N=C/c2ccc(N3CCOCC3)s2)ccc1Cl |  | 5.42
52 | COCCCNC(=O)/C(C#N)=C/c1ccc(-c2ccc(Cl)c(C(=O)O)c2)o1 | > 6.48 µM (inactive) | 
53 | C=CC1=C(C)C2=Cc3c(C=C)c(C)c4[n]3[Sn+2][n]3c(c(C)c(CCC(=O)O)c3=CC3=NC(=C4)C(C)=C3CCC(=O)O)=CC1=N2 | > 6.48 µM (inactive) | 
54 | COc1c(O)cc(O)cc1O | > 6.48 µM (inactive) | 
55 | Cc1ccc(/C(C#N)=C\c2ccco2)cc1 | > 6.48 µM (inactive) | 
56 | Cc1ccc(C)n1C(Cc1c[nH]c2ccccc12)C(=O)O (stereo not drawn) | > 6.48 µM (inactive) | 
57 | Cc1noc(C2CN(C(=O)c3ccc(-n4cccc4)cc3)C2)n1 | > 6.48 µM (inactive) | 
58 | CCCCNCCOc1ccccc1OCC | > 6.48 µM (inactive) | 
59 | CSc1ccc(C(=O)O)s1 | > 10.2 µM (inactive) | 
60 | CC(=O)NCC(c1cccs1)S(=O)(=O)c1ccc(C)cc1 (stereo not drawn) | > 6.41 µM (inactive) | 
61 | C=C1C(C(=O)NCc2ccco2)C1C(=O)NCc1ccco1 (stereo not drawn) | > 7.72 µM (inactive) | 
62 | CCOC(=O)C1CCCN(Cc2cccc(Br)c2)C1 (stereo not drawn) | > 6.48 µM (inactive) | 
63 | O=c1[nH]cccc1-c1ccc(Nc2nccc(-c3ccc4nc(C5CC5)[nH]c(=O)c4c3)n2)cc1 | > 6.48 µM (inactive) | 
64 | Nc1ccc(O)c(C(=O)O)c1 |  | 5.60
65 | CC(Oc1ccc2c(C(F)(F)F)cc(=O)oc2c1)C(=O)NN (stereo not drawn) | > 6.56 µM (inactive) | 
66 | CC(C)N(C)CCOC(=O)/C=C/c1ccco1 | > 6.48 µM (inactive) | 
67 | CC[C@H](C)[C@@H]1NC(=O)[C@H]2CN(C(=O)NCc3ccccc3)CCN2C1=O | > 6.48 µM (inactive) | 
68 | Cc1cc(CSC(=N)N)c(O)c(C)n1 | > 6.48 µM (inactive) | 
69 | O=C(CCCCC1SCC2NC(=O)NC21)NC1(c2ccc(F)cc2)CCCC1 (stereo not drawn) | > 6.48 µM (inactive) | 
70 | O=C(Nc1ccc(N2CCOCC2)cc1)c1ccc2nc(-c3cccs3)sc2c1 | > 7.76 µM (inactive) | 
71 | CNC(=O)COc1cc(-c2cn[nH]c2)ccc1NC(=O)C1COc2ccc(OC)cc2C1 (stereo not drawn) | > 6.48 µM (inactive) | 
72 | CCOC(=O)C1C2NC(=S)N(c3ccccc3)C1(C)Oc1cc(OC)ccc12 (stereo not drawn) | > 6.4 µM (inactive) | 
73 | O=C(O)CCC(NCc1ccco1)C(=O)O (stereo not drawn) | > 6.85 µM (inactive) | 
74 | O=C(c1ccc(=O)oc1)N1CCc2ccccc21 | > 7.53 µM (inactive) | 
75 | O=C(NC1CCN(Cc2ccccc2)CC1)c1ccc2nc(-c3cccs3)sc2c1 | > 6.38 µM (inactive) | 

Row | Compound | IC50 | pIC50
76 | Cc1cc(NC(=O)C2CCN(C(=O)c3ccc(-n4cccc4)cc3)CC2)no1 | > 6.48 µM (inactive) | 
77 | O=C(Nc1ccc(-c2cn[nH]c2)c(C(F)(F)F)c1)C1COc2ccccc2O1 (stereo not drawn) | > 6.48 µM (inactive) | 
78 | Cc1nc(C)n(-c2ccc(Nc3cc(-n4cc(N(c5cccnc5)c5cccnc5)cn4)ccn3)cc2)n1 | > 6.48 µM (inactive) | 
79 | O=C(O)c1cc(C(=O)O)cc(-c2ccc(/C=N\n3cnnc3)o2)c1 | > 6.48 µM (inactive) | 
80 | NC(=O)c1cc(NC(=O)COC(=O)COc2cccc(C(F)(F)F)c2)cc(C(N)=O)c1 | > 6.49 µM (inactive) | 
81 | Cc1ccc(C(=O)Nc2ccc([N+](=O)[O-])cn2)o1 | > 6.48 µM (inactive) | 
82 | O=C(CCc1ccco1)Nc1ccc(-c2cn3c4c(nnc3n2)CCCC4)cc1 | > 6.48 µM (inactive) | 
83 | Cc1ccc(NC(=O)COC(=O)CCC(=O)Nc2sc3c(c2C(N)=O)CCC3)cc1F | > 6.95 µM (inactive) | 
84 | CCc1ccc(NC(=O)CS(=O)CC(=O)NCCCc2ccccc2)cc1 (stereo not drawn) | > 6.48 µM (inactive) | 
85 | O=C(O)CSc1cc(Cl)c2nonc2c1[N+](=O)[O-] |  | 5.38
86 | CCN(CC)CC(=O)Nc1ccc(OC)cc1 | > 6.48 µM (inactive) | 
87 | Cc1cccc(OCC(=O)N2CCN(Cc3cccc(Br)c3)CC2)c1 | > 6.48 µM (inactive) | 
88 | O=C(O)CCN(CCC(=O)O)c1ccc(O)cc1 |  | 5.52
89 | O=C(COC(=O)c1cc(-c2ccco2)nc2ccccc12)NC1CC1 | > 6.94 µM (inactive) | 
90 | NC(=O)CSc1ccc(C(N)=O)cc1[N+](=O)[O-] | > 7.11 µM (inactive) | 
91 | O=C(c1cccc(F)c1)N1CCN(Cc2ccncc2)CC1 | > 5.66 µM (inactive) | 
92 | Cc1cc(C)n(C(=O)/C=C/c2ccco2)n1 | > 6.48 µM (inactive) | 
93 | N#CC(C#N)=Cc1cccn1-c1ccc(C(=O)O)cc1 | > 6.48 µM (inactive) | 
94 | CN1C(=O)[C@H]2CN(C(=O)NC3CCCCC3)CCN2C(=O)[C@@H]1CO | > 6.48 µM (inactive) | 
95 | CC1=C/C(=N\N=C2\NC(=O)C(CC(=O)Nc3ccc(C(=O)O)cc3)S2)CC(C)(C)C1 (stereo not drawn) | > 6.48 µM (inactive) | 
96 | CN(C)CCS(=O)c1cc(-c2cn[nH]c2)ccc1NC(=O)[C@@H]1Cc2cc(F)ccc2CN1 (stereo partly drawn) | > 6.48 µM (inactive) | 
97 | Oc1ccc(CCNc2cc(-c3cccs3)ncn2)cc1 | > 6.7 µM (inactive) | 
98 | CC[C@@H]1NC(=O)[C@H]2CN(C(=O)NCc3ccccc3)CCN2C1=O | > 6.48 µM (inactive) | 
